Experiment [1] deals with A10. Description: Induction of microtubule depolymerisation in rat A-10 cell line at 40 uM measured after 18 hrs by indirect immunofluorescence method.
Another experiment concerns MDA-MB-435. Description: Antiproliferative activity against human MDA-MB-435 cell line assessed as inhibition of cell proliferation at 10 uM measured after 48 hrs by SRB assay. In kind it is functional. Background: Sulforhodamine B stains cellular protein and so reports cell mass.
The test system of experiment [2] is A10. Description: Potency index, ratio of CA-4 IC50 to test compound IC50 for induction of microtubule depolymerisation in rat A-10 cell line measured after 18 hrs by indirect immunofluorescence method.

Each structure is given as a SMILES string. Active and inactive are the calls of the source. No cut-off for these calls is given here.

As to `COc1ccc(Nc2nc(C)nc3c2CC(C)C3)cc1` (stereo not drawn), the result in the experiment with A10 [1] was inactive. In addition, in the experiment on MDA-MB-435, the inhibition (usually the drop in the measured response relative to a control, in per cent) at 10 µM was 7%. For the same compound, the Ratio IC50 with A10 [2] was determined as 3.

For the origin of these results see ChEMBL document CHEMBL4680306, “The 3-D conformational shape of N-naphthyl-cyclopenta[d]pyrimidines affects their potency as microtubule targeting agents and their antitumor activity” (Bioorg Med Chem, 2021).
